Experiment: xn = mol fraction of the nth substance listed

CCCC[N+](CCCC)(CCCC)CCCC.O=S(=O)([O-])O + O=C1O[C@H]([C@@H](O)CO)C(O)=C1O + O
viscosity [mPa·s], 101 kPa
Settings	298.15 K	308.15 K	318.15 K
x2 = 0.0003644, x1 = 0.0003601	0.908	0.734	0.61
x2 = 0.0003645, x1 = 9.006e-05	0.901	0.726	0.603
x2 = 0.000365, x1 = 0.0001801	0.903	0.729	0.605
x2 = 0.0003656, x1 = 0.0002701	0.906	0.731	0.607
x2 = 0.0006576, x1 = 0.0001801	0.91	0.734	0.608
x2 = 0.0006584, x1 = 9.003e-05	0.908	0.732	0.606
x2 = 0.0006587, x1 = 0.00027	0.912	0.737	0.611
x2 = 0.0006597, x1 = 0.00036	0.915	0.739	0.614
x2 = 0.0009539, x1 = 9.001e-05	0.913	0.737	0.611
x2 = 0.0009554, x1 = 0.00018	0.917	0.74	0.612
x2 = 0.0009567, x1 = 0.0003599	0.921	0.745	0.619
x2 = 0.0009569, x1 = 0.00027	0.919	0.742	0.617
x2 = 0.001253, x1 = 8.998e-05	0.92	0.743	0.615
x2 = 0.001255, x1 = 0.0001799	0.922	0.745	0.616
x2 = 0.001255, x1 = 0.0002699	0.924	0.748	0.621
x2 = 0.001257, x1 = 0.0003598	0.928	0.751	0.624
x2 = 0.001553, x1 = 8.995e-05	0.925	0.747	0.62
x2 = 0.001556, x1 = 0.0001799	0.929	0.75	0.622
x2 = 0.001558, x1 = 0.0002698	0.931	0.754	0.626
x2 = 0.001561, x1 = 0.0003597	0.934	0.757	0.629
x2 = 0.001859, x1 = 8.992e-05	0.931	0.751	0.625
x2 = 0.00186, x1 = 0.0001798	0.934	0.755	0.627
x2 = 0.001863, x1 = 0.0002697	0.938	0.758	0.631
x2 = 0.001866, x1 = 0.0003596	0.94	0.762	0.634

CCOS(=O)(=O)[O-].CC[n+]1ccn(C)c1 + O=C([O-])CC(O)(CC(=O)[O-])C(=O)[O-].[K+].[K+].[K+] + O
viscosity [mPa·s], 101.3 kPa
Settings	293.15 K	298.15 K	303.15 K	308.15 K	313.15 K
x2 = 0, x1 = 0.001795	1.073	0.96	0.845	0.751	0.679
x2 = 0, x1 = 0.002698	1.107	0.987	0.876	0.788	0.709
x2 = 0, x1 = 0.003589	1.136	1.016	0.899	0.811	0.727

CCOS(=O)(=O)[O-].CC[n+]1ccn(C)c1 + O=C([O-])c1ccccc1.[Na+] + O
viscosity [mPa·s], 101.3 kPa
Settings	293.15 K	298.15 K	303.15 K	308.15 K	313.15 K
x2 = 0, x1 = 0.001795	1.073	0.96	0.845	0.751	0.679
x2 = 0, x1 = 0.002698	1.107	0.987	0.876	0.788	0.709
x2 = 0, x1 = 0.003589	1.136	1.016	0.899	0.811	0.727

CCOS(=O)(=O)[O-].CC[n+]1ccn(C)c1 + OCC(O)CO
100 kPa
Settings	electrical conductivity [S/m]	viscosity [mPa·s]
298.15 K, x1 = 0.002	0.000368	–
298.15 K, x1 = 0.004	0.00065	–
298.15 K, x1 = 0.012	0.00204	–
298.15 K, x2 = 0.123	0.396	89.1
298.15 K, x2 = 0.601	0.248	91.5
298.15 K, x2 = 0.98	0.00333	–
303.15 K, x2 = 0.264	–	65
303.15 K, x2 = 0.5	–	63.7
303.15 K, x2 = 0.98	–	494
313.15 K, x1 = 0.002	0.00114	279.6
313.15 K, x1 = 0.004	0.002	274.6
313.15 K, x2 = 0.958	0.0222	199

[Cl-].c1c[nH+]c[nH]1 + OCC(O)CO
100 kPa
Settings	viscosity [mPa·s]
313.2 K, x1 = 0.1667	306
313.2 K, x1 = 0.3333	154.5
323.2 K, x1 = 0.25	107
323.2 K, x1 = 0.3333	84
333.2 K, x1 = 0.5	100.1
343.2 K, x1 = 0.5	50.6

CCOS(=O)(=O)[O-].CC[n+]1ccn(C)c1 + OCCN(CCO)CCO
Settings	viscosity [mPa·s]
303.15 K, 100 kPa, x2 = 0	75.7

— the CheMixHub ionic liquid set
